Assay results: patent publication US11396503B2, “Sulfonyl substituted bicyclic compound which acts as ROR inhibitor” (CHIA TAI TIANQING PHARMACEUTICAL GROUP CO., LTD, priority 2017, dated 2022)

Each compound was assayed against T1, hRORγt (Homo sapiens, UniProt P51449) (assay: Luciferase assay (reporter gene, recombinant plasmid hRORγt)). Details: CHO-S cells transfected with pM-hRORγt and pG5-luc; overnight culture with compound; ONE-Glo luciferase readout; read-out: RORgt EC50.
T1 construct: expressed in transfected cells; host or cells: CHO-S (Chinese hamster ovary cells, Invitrogen R80007), transiently transfected with pM-hRORγt and pG5-luc
T1 sequence (P51449 1-497 isoform P51449-2): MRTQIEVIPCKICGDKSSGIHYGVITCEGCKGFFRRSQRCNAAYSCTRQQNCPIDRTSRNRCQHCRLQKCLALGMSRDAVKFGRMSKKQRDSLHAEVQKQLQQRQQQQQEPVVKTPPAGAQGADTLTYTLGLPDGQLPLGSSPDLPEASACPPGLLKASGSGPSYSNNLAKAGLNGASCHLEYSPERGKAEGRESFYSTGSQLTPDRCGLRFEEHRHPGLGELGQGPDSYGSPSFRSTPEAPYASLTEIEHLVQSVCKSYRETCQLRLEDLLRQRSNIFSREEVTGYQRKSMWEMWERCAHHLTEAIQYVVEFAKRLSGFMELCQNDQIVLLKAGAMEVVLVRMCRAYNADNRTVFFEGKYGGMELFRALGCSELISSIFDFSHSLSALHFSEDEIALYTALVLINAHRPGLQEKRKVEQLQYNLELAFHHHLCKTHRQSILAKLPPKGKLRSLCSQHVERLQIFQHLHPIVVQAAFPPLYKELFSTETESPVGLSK
Assay type: cell-based
From the text: This assay method used luciferase as a reporter gene to detect the expression of cells transfected with a gene recombinant plasmid at gene transcription level, wherein the recombinant plasmid was constructed by the promoter of a target gene and a luciferase gene. The experiment was primarily related to the transfection of the recombinant plasmid hRORγt (“RORgt”).
I. Reagents and Materials:
1. Cells: Chinese hamster ovary cells (CHO—S, Invitrogen, Cat #R80007), suspension-cultured in CD-CHO culture medium containing 8 mM L-glutamine and 1×HT.
a) Luciferase reporter gene plasmid pG5-luc: reporter plasmid (Promega).
b) Target gene plasmid pM-hRORγt: human RORgamma.
4. Transfection reagent: TransIT-CHO transfection kit (Minis Bio Co.) containing Trans-It reagent and Mojo reagent (Minis, MIR2170).
7. Luciferase kit: (Promega ONE-Glo, 100 ml, Catalog #E6120): containing luciferase substrate (Coenzyme A, ATP and luciferin) and a reaction buffer.
II. Specific Experimental Steps
1. Cell seeding: 18 to 24 h before transfection, a 125 mL shake flask was charged with CHO—S cells having a concentration of 0.5×10^6 cells/mL to 0.6×10^6 cells/mL, and CD-CHO culture medium (the culture medium only contained L-glutamine and an HT supplement) was added thereto to a final volume of 18 mL. The shake flask was placed on a shaker, and the cells were passaged overnight under a condition of 120 rpm, 37° C. and 8% CO2.
2. Cell transfection: At this time, the cell concentration of the above-mentioned solution should be 1.2×10^6 cells/mL to 1.5×10^6 cells/mL. CD-CHO culture medium (containing L-glutamine and an HT supplement) was used for dilution until the cell concentration reached 1×10^6 cells/mL.
B. Preparation of transfection reagent (TransIT-CHO: Mojo: DNA complex), which was formulated immediately before transfection.
1. Trans-IT reagent was warmed to room temperature in advance and shaken to be uniformly mixed before use.
2. Preparation for DNA transfection: the following reagents were mixed in a 1.5 mL sterile centrifuge tube:
27 μg of luciferase reporter gene plasmid pG5-luc: 27 μL, 1 mg/mL solution,
0.75 μg of the expression plasmid of the target gene (pM-hRORγt, 7.5 μL, 0.1 mg/mL solution).
3. The following reagents were charged into a 15 mL sterile centrifuge tube:
83 μL of TransIT-CHO reagent
the DNA complex prepared in step 2
4. The mixture was mixed well and placed at room temperature for 5 min.
5. 13.9 μL of Mojo reagent was charged into a sterile centrifuge tube, mixed slightly, and placed at room temperature for 20 min to form a transfection complex.
1. A 125 mL shake flask was charged with the transfection complex prepared in step B dropwise while being shaken slowly.
2. The cells were cultured for 4 h in a shaker under a condition of 37° C. and 8% carbon dioxide.
3. After 4 h, the cells were transferred to a 50 mL sterile centrifuge tube, centrifuged at 1200 rpm for 4 min, and the supernatant was aspirated.
4. The cells were re-suspended in 6 mL of a freezing medium (CD-CHO, L-glutamine, HT supplement, and 10% DMSO), and the cell density should be 3×10^6 cells/ml at this time.
5. The mixture was dispensed into 12 tubes with 0.5 mL in each tube. The tubes were placed in a refrigerator at −80° C. to be slowly frozen overnight, and then were transferred into liquid nitrogen for long-term storage.
D. Luciferase activity assay (96-well flat plate)
1. The cells were thawed at 37° C.
2. The cells (1.5×10^6 cells/0.5 mL) were diluted with 2 mL of freshly formulated culture medium (CD-CHO, L-glutamine and an HT supplement) to a volume of 2.5 mL, and then were transferred to a 15 mL sterile centrifuge tube.
3. Cell counting: If the cells were completely viable, a concentration of 6×10^5 cells/mL should be achieved. […] If necessary, the cells were diluted with culture medium.
4. Cell seeding: 100 μl cells (4×10^4 cells) were added to each well.

SMILES	EC50 [pM]
CCc1ccc2c(c1)CCC(C)N2S(=O)(=O)c1ccc(OCC2CCOCC2)c(CO)c1 (stereo not shown)	23600
CCc1ccc2c(c1)CCCN2S(=O)(=O)c1ccc(OCC2CCOCC2)c(CO)c1	858000
CCc1ccc2c(c1)CC(C)N2S(=O)(=O)c1ccc(OCC2CCOCC2)c(CO)c1 (stereo not shown)	1.61e+06
CCc1ccc2c(c1)CC[C@@H](C)N2S(=O)(=O)c1ccc(OCC2CCOCC2)c(CO)c1	218000
CCc1ccc2c(c1)CC(C)CN2S(=O)(=O)c1ccc(OCC2CCOCC2)c(CO)c1 (stereo not shown)	36000
CC1CCc2cc(C(F)(F)F)ccc2N1S(=O)(=O)c1ccc(OCC2CCOCC2)c(CO)c1 (stereo not shown)	15000
CC(C)c1ccc2c(c1)CCC(C)N2S(=O)(=O)c1ccc(OCC2CCOCC2)c(CO)c1 (stereo not shown)	14900
C=Cc1ccc2c(c1)CCC(CC)N2S(=O)(=O)c1ccc(OCC2CCOCC2)c(CO)c1 (stereo not shown)	35500
CCc1ccc2c(c1F)CCC(CC)N2S(=O)(=O)c1ccc(OCC2CCOCC2)c(CO)c1 (stereo not shown)	13600
[2H]C([2H])(O)c1cc(S(=O)(=O)N2c3ccc(C(C)C)cc3CCC2CC)ccc1OCC1CCOCC1 (stereo not shown)	11500
CCC1CCc2cc(C(C)(F)F)ccc2N1S(=O)(=O)c1ccc(OCC2CCOCC2)c(CO)c1 (stereo not shown)	15600
CCc1ccc2c(c1)CCC(C(F)(F)F)N2S(=O)(=O)c1ccc(OCC2CCOCC2)c(CO)c1 (stereo not shown)	23000
CCc1ccc2c(c1)C(C)CCN2S(=O)(=O)c1ccc(OCC2CCOCC2)c(CO)c1 (stereo not shown)	655000
CCCc1ccc2c(c1)CCC(C)N2S(=O)(=O)c1ccc(OCC2CCOCC2)c(CO)c1 (stereo not shown)	17900
CCc1ccc2c(c1)CCC(CC)N2S(=O)(=O)c1ccc(OCC2CCOCC2)c(CO)c1 (stereo not shown)	11000
CC1CCc2cc(C#N)ccc2N1S(=O)(=O)c1ccc(OCC2CCOCC2)c(CO)c1 (stereo not shown)	689000
CCc1cc(F)c2c(c1)CC[C@H](C)N2S(=O)(=O)c1ccc(OCC2CCOCC2)c(CO)c1	151000
CC1CCc2cc(C3CC3)ccc2N1S(=O)(=O)c1ccc(OCC2CCOCC2)c(CO)c1 (stereo not shown)	20700
CCc1ccc2c(c1)CC(CC)CN2S(=O)(=O)c1ccc(OCC2CCOCC2)c(CO)c1 (stereo not shown)	31600
CCc1ccc2c(c1)CCC(C)(C)N2S(=O)(=O)c1ccc(OCC2CCOCC2)c(CO)c1	310000
CCc1cc2c(cc1F)N(S(=O)(=O)c1ccc(OCC3CCOCC3)c(CO)c1)[C@@H](C)CC2	96500

SMILES	EC50 [pM]
CC[C@@H]1CCc2cc(C(C)C)ccc2N1S(=O)(=O)c1ccc(OCC2CCOCC2)c(CO)c1	48000
CCc1ccc2c(c1)CC[C@@H](CC)N2S(=O)(=O)c1ccc(OCC2CCOCC2)c(CO)c1	4200
CCc1ccc2c(c1)CCC(CC)N2S(=O)(=O)c1ccc(C(O)CC2CCOCC2)c(CO)c1 (stereo not shown)	201000
CCC1CCc2cc(C(C)(C)O)ccc2N1S(=O)(=O)c1ccc(OCC2CCOCC2)c(CO)c1 (stereo not shown)	1.4e+06
CCc1ccc2c(c1)CCC(CC)N2S(=O)(=O)c1ccc(C(CO)N2CCOCC2)c(CO)c1 (stereo not shown)	3.12e+06
CCc1ccc2c(c1)CCC(CC)N2S(=O)(=O)c1ccc(C(O)CN2CCOCC2)c(CO)c1 (stereo not shown)	595000
CCc1ccc2c(c1)CC[C@H](CC)N2S(=O)(=O)c1ccc(OCC2CCOCC2)c(CO)c1	34900
CCc1ccc2c(c1)N(S(=O)(=O)c1ccc(OCC3CCOCC3)c(CO)c1)[C@@H](C)CC2	223000
CC[C@H]1CCc2cc(C(F)(F)F)ccc2N1S(=O)(=O)c1ccc(OCC2CCOCC2)c(CO)c1	71000
CCC1CCc2cc(C(C)C)ccc2N1S(=O)(=O)c1ccc(OCC2CCOCC2)c(CO)c1 (stereo not shown)	3500
C[C@H]1CCc2ccc(C(F)(F)F)cc2N1S(=O)(=O)c1ccc(OCC2CCOCC2)c(CO)c1	330000
CC[C@@H]1CCc2cc(C3CCC3)ccc2N1S(=O)(=O)c1ccc(OCC2CCOCC2)c(CO)c1	5200
CC[C@@H]1CCc2cc(C(F)(F)F)ccc2N1S(=O)(=O)c1ccc(OCC2CCOCC2)c(CO)c1	5400
CCC1CCc2cc(C3CCC3)ccc2N1S(=O)(=O)c1ccc(OCC2CCOCC2)c(CO)c1 (stereo not shown)	5500
CCc1ccc2c(c1)CCC(CC(C)C)N2S(=O)(=O)c1ccc(OCC2CCOCC2)c(CO)c1 (stereo not shown)	21000
C[C@H]1CCc2cc(C(C)(F)F)ccc2N1S(=O)(=O)c1ccc(OCC2CCOCC2)c(CO)c1	181000
CCc1ccc2c(c1)C[C@@H](O)[C@H](C)N2S(=O)(=O)c1ccc(OCC2CCOCC2)c(CO)c1	803000
CCc1ccc2c(c1)CC[C@@H](C1CC1)N2S(=O)(=O)c1ccc(OCC2CCOCC2)c(CO)c1	3200
CCc1ccc2c(c1)CCC(C1CCC1)N2S(=O)(=O)c1ccc(OCC2CCOCC2)c(CO)c1 (stereo not shown)	8100
CC(C)c1ccc2c(c1)CCC(C1CC1)N2S(=O)(=O)c1ccc(OCC2CCOCC2)c(CO)c1 (stereo not shown)	6600

Results, then the compound that gave them:

EC50 [pM]	SMILES
12000	C=C(C)c1ccc2c(c1)CCC(CC)N2S(=O)(=O)c1ccc(OCC2CCOCC2)c(CO)c1 (stereo not shown)
25000	CCc1ccc2c(c1)CC[C@H](C)N2S(=O)(=O)c1ccc(OCC2CCOCC2)c(CO)c1
1.4e+06	CCc1ccc2c(c1)C(C)CN2S(=O)(=O)c1ccc(OCC2CCOCC2)c(CO)c1 (stereo not shown)
2.63e+06	CCc1ccc2c(c1)CCN2S(=O)(=O)c1ccc(OCC2CCOCC2)c(CO)c1
1.86e+06	CCc1ccc2c(c1)CCC(CC)N2S(=O)(=O)c1ccc(OCC2CCOCC2)c(S(C)(=O)=O)c1 (stereo not shown)
212000	CCc1ccc2c(c1)CCC(CC)N2S(=O)(=O)c1ccc(OCC2CCOCC2)c(CO)n1 (stereo not shown)
576000	CCc1ccc2c(c1)CCC(CC)N2S(=O)(=O)c1ccc(OCC2CCOCC2)c(S(N)(=O)=O)c1 (stereo not shown)
23000	CCC1CCc2cc(CC(F)(F)F)ccc2N1S(=O)(=O)c1ccc(OCC2CCOCC2)c(CO)c1 (stereo not shown)
12400	CCc1ccc2c(c1)CCC(C(C)C)N2S(=O)(=O)c1ccc(OCC2CCOCC2)c(CO)c1 (stereo not shown)
6800	CC[C@H]1CCc2cc(C(C)C)ccc2N1S(=O)(=O)c1ccc(OCC2CCOCC2)c(CO)c1
316000	C[C@H]1CCc2cc(CC(F)(F)F)ccc2N1S(=O)(=O)c1ccc(OCC2CCOCC2)c(CO)c1
21100	CCC1CCc2cc(C(F)(F)F)ccc2N1S(=O)(=O)c1ccc(OCC2CCOCC2)c(CO)c1 (stereo not shown)
70200	CCC1CCc2cc(C(C)(C)C)ccc2N1S(=O)(=O)c1ccc(OCC2CCOCC2)c(CO)c1 (stereo not shown)
7000	CCc1ccc2c(c1)CCC(C1CC1)N2S(=O)(=O)c1ccc(OCC2CCOCC2)c(CO)c1 (stereo not shown)
10000	CC[C@@H]1CCc2cc(C(C)(F)F)ccc2N1S(=O)(=O)c1ccc(OCC2CCOCC2)c(CO)c1
146000	CCc1ccc2c(c1)CCC(CC)N2S(=O)(=O)c1ccc(OCC2CCS(=O)(=O)CC2)c(CO)c1 (stereo not shown)
18000	Cc1cc(C)c2c(c1)CCC(C1CC1)N2S(=O)(=O)c1ccc(OCC2CCOCC2)c(CO)c1 (stereo not shown)
